Read-outs that look alike come from different tables or passages of the source.
What was measured:
[1] = Stability of analytes in rat plasma (UPLC-MS/MS method validation); type: in vitro ADME; details: n = 5
Experimental: The sensitivity of the method was reflected by the lower limit of quantification (LLOQ), which was also the lowest quantitative point. The LLOQ and three QC samples were obtained by the same method. […] All chemicals and solutions were stored at −80 °C for further use. Protein precipitation was used to remove proteins from plasma and extract the test materials. […] The mixture was then centrifuged at 13,000 rpm for 10 min at 4 °C to ensure complete protein precipitation. After centrifugation, the supernatant was carefully collected and transferred into a sample vial. Finally, 2.0 µL of sample was injected for UPLC-MS/MS analysis. The calibration curve, selectivity, accuracy, precision, recovery, matrix effect, and stability of the method established in this study were validated according to the FDA Bioanalytical Method Validation Guidance and the guidelines from the National Medical Products Administration (NMPA). Detailed information regarding the evaluation could be found in the Results and Discussion sections.

[2] = In vivo pharmacokinetic interaction study in Sprague-Dawley rats; details: for AUC(0-inf) / AUC(0-t) / Cmax / Tmax / half-life / CL/F: male, Sprague-Dawley, rat, plasma, po, 25 mg/kg, rat plasma, n = 5, mean ± S.D.; for CL/F: read-out: CLz/F (converted)
Experimental: Protein precipitation was used to remove proteins from plasma and extract the test materials. To this end, 100 µL of plasma sample was combined with 10 µL of the IS working solution (400 ng/mL) and 300 µL of acetonitrile. The mixture was then centrifuged at 13,000 rpm for 10 min at 4 °C to ensure complete protein precipitation. After centrifugation, the supernatant was carefully collected and transferred into a sample vial. Finally, 2.0 µL of sample was injected for UPLC-MS/MS analysis.
The study was approved by Institutional Animal Care and Use Committee of the First Affiliated Hospital of Wenzhou Medical University (Approval No. WYYY-IACUC-AEC-2024-079). The experimental animals were cared in accordance with the Guide for the Care and Use of Laboratory Animals issued by the National Research Council, complying with the ARRIVE guidelines. The 6–8 weeks old Sprague-Dawley rats were obtained from Vital River Laboratory Animal Technology Co., Ltd (China, Zhejiang). The rats were housed at 25 °C and given a 14-day acclimation period under experimental conditions to reduce potential variability.
Due to the similarity between their hepatic enzyme system and humans, SD male rats are widely used in pharmacokinetics ([Riccardi et al., 2018]; [Martignoni, Groothuis & De Kanter, 2006]). A total of 10 SD male rats (200 ± 20 g) were randomly divided into two groups (n = 5): Group A (control group) and Group B (experimental group). The animals were fasted for 12 h prior to the experiment but had free access to water. […] And the concentration of tropifexor was determined to be 20 µg/kg based on body surface area conversion from human administered doses in prior literature ([Chen et al., 2022a]). Experimental group was received of tropifexor (20 µg/kg) via oral gavage, whereas control group was administered of an equivalent volume of corn oil. […] Blood samples were then collected at different time points at 0.5, 1, 1.5, 2, 4, 8, 12, 24, and 48 h after administration. Each blood sample (approximately 0.3 mL) was taken from the caudal veins, and was collected into 1.5 mL heparinized polyethylene tubes. After centrifuged at 13,000 rpm for 10 min, the supernatant was collected and stored at −80 °C. The plasma sample was treated according to 2.4 Pre-treatment of samples before UPLC-MS/MS analysis.
Pharmacokinetic parameters were calculated using the Drug and Statistics (DAS) software (version 3.0 software, Mathematical Pharmacology Professional Committee of China, Shanghai, China) with non-compartment model analyses based on the input data of drug administration route, dosage, drug concentration, and time.

[3] = tested on: rat liver microsomes (RLM); assay: Enzyme kinetics of crizotinib in rat liver microsomes (Michaelis-Menten)
Experimental: (§1) Before measurement, the mixture without NADPH was pre-incubated at 37 °C for 5 min. Then, one mM of NADPH was given to incubate the reaction in a water bath with shaking at a rate of 200 times/min. After 30 min, the reaction was terminated by cooling at −80 °C. Next, 300 µL acetonitrile and 10 µL of the IS working solution were added to the mixture. After shaking for 2 min, the supernatant was obtained by centrifugation at 13,000 rpm for 10 min and subjected to UPLC-MS/MS analysis.
(§2) The Km, IC50, the Lineweaver-Burk plot and the mean plasma concentration–time curve were calculated and plotted using GraphPad Prism 9.0 software (GraphPad Software Inc., California, United States).

[4] = parameters: method as in Johnson et al., 2015; details: humans; ref Johnson et al., 2015; cited from earlier work
[5] = parameters: method as in Ou, 2011; details: humans, single oral dose of 250 mg/d; ref Ou, 2011; cited from earlier work
[6] = parameters: method as in Qiu et al., 2016; details: ref Qiu et al., 2016, cited from earlier work
[7] = parameters: method as in Xu et al., 2015; details: compared to a single oral dose of 150 mg crizotinib; ref Xu et al., 2015; cited from earlier work
RLM = tested on: RLM; parameters: method as in Wang et al., 2024; details: read-out: Km of crizotinib, ref Wang et al., 2024; cited from earlier work
[8] = parameters: method as in Chen, Li & Chen, 2022; details: PBPK model, cancer patients; ref Chen, Li & Chen, 2022; cited from earlier work
in vitro [9] = details: human, human liver microsomes, pH 7.4, Km of crizotinib, HLM 0.3 mg/mL, 1 mM NADPH, 0.1–50 µM crizotinib
[10] = cited from earlier work
in vitro [11] = details: rat, rat liver microsomes, pH 7.4
Experimental: as §1, §2

[12] = parameters: method as in Chen et al., 2022b; details: ref Chen et al., 2022b; cited from earlier work
[13] = target: crizotinib metabolism in human liver microsomes (HLM) (Homo sapiens, UniProt P08684); assay: Inhibition of crizotinib metabolism by tropifexor in HLM (IC50, Lineweaver-Burk); type: in vitro ADME
crizotinib metabolism in human liver microsomes (HLM), sequence (P08684 2-503): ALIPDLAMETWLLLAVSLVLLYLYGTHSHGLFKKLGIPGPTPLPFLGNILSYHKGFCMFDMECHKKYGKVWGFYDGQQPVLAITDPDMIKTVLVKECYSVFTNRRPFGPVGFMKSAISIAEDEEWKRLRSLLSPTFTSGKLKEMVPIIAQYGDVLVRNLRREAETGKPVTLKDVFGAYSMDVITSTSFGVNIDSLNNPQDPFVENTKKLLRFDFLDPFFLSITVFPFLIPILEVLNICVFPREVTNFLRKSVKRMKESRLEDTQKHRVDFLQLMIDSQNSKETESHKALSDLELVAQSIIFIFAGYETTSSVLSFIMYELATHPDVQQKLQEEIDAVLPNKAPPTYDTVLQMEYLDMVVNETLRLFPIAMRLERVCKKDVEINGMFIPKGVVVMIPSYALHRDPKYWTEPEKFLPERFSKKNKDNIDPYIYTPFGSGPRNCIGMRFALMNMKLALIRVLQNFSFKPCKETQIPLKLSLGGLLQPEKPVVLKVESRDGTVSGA

[14] = parameters: method as in Badman et al., 2020; details: healthy volunteers, single dose of up to three mg; ref Badman et al., 2020; cited from earlier work
[15] = tested on: crizotinib metabolism in rat liver microsomes (RLM); assay: Inhibition of crizotinib metabolism by tropifexor in RLM (IC50, Lineweaver-Burk); type: in vitro ADME
[16] = group Crizotinib + Tropifexor: oral tropifexor 20 µg/kg 30 min before oral crizotinib 25 mg/kg
[17] = group Crizotinib alone: single oral crizotinib 25 mg/kg
[18] = rats, compared to control group

C[C@@H](Oc1cc(-c2cnn(C3CCNC(=O)C3)c2)cnc1N)c1c(Cl)ccc(F)c1Cl (some centres unmarked) [2-Keto crizotinib]
Stability RE ([1]; 2 ng/mL, 10 °C (4 h)): 2.2% | Stability RE ([1]; 2 ng/mL, 21 days at −80 °C): 14.7% | Stability RE ([1]; 2 ng/mL, room temperature (3 h)): 9.9% | Stability RE ([1]; 2 ng/mL, three freeze-thaw (−80 °C/RT)): 11.9% | Stability RE ([1]; 40 ng/mL, 10 °C (4 h)): 0.6% | Stability RE ([1]; 40 ng/mL, 21 days at −80 °C): 5.2% | Stability RE ([1]; 40 ng/mL, room temperature (3 h)): 2.0% | Stability RE ([1]; 40 ng/mL, three freeze-thaw (−80 °C/RT)): −0.7% | Stability RE ([1]; 80 ng/mL, 10 °C (4 h)): −0.6% | Stability RE ([1]; 80 ng/mL, 21 days at −80 °C): 5.9% | Stability RE ([1]; 80 ng/mL, room temperature (3 h)): 3.0% | Stability RE ([1]; 80 ng/mL, three freeze-thaw (−80 °C/RT)): −0.7% | AUC(0-inf) [2, 16]: 880 ± 269 ng·h/mL | AUC(0-t) [2, 16]: 877 ± 268 ng·h/mL | Cmax [2, 16]: 74.3 ± 26.8 ng/mL | Tmax [2, 16]: 8.8 ± 1.79 h | half-life [2, 16]: 5.78 ± 1.79 h | CL/F [2, 16]: 507 mL/min/kg | AUC(0-inf) [2, 17]: 605 ± 99.1 ng·h/mL | AUC(0-t) [2, 17]: 603 ± 97.7 ng·h/mL | Cmax [2, 17]: 51 ± 14.4 ng/mL | Tmax [2, 17]: 8 h | half-life [2, 17]: 4.82 ± 1.18 h | CL/F [2, 17]: 704 mL/min/kg | decrease of CLz/F on co-administration of tropifexor [2, 18]: 27.9%

C[C@@H](Oc1cc(-c2cnn(C3CCNCC3)c2)cnc1N)c1c(Cl)ccc(F)c1Cl [crizotinib, Crizotinib]
Vmax [3]: 0.01457 pmol/min/µg protein | drug excreted unchanged in the feces [4]: approximately 63% | time at which Cmax was observed [5]: 4 h | Cmax ([6]; SD rats, oral 24 mg/kg): 309 ± 39.8 ng/mL | Tmax ([6]; SD rats, oral 24 mg/kg): 2.00 ± 0.00 h | oral absolute bioavailability ([6]; rats): 68.6 ± 9.63% | increase in AUC on co-administration with ketoconazole [7]: 2.2 fold | Km (RLM): 4.61 ± 0.28 µM | Stability RE ([1]; 5 ng/mL, 10 °C (4 h)): 0.5% | Stability RE ([1]; 5 ng/mL, 21 days at −80 °C): −1.9% | Stability RE ([1]; 5 ng/mL, room temperature (3 h)): −9.0% | Stability RE ([1]; 5 ng/mL, three freeze-thaw (−80 °C/RT)): −8.3% | Stability RE ([1]; 120 ng/mL, 10 °C (4 h)): 5.9% | Stability RE ([1]; 120 ng/mL, 21 days at −80 °C): 4.7% | Stability RE ([1]; 120 ng/mL, room temperature (3 h)): −6.9% | Stability RE ([1]; 120 ng/mL, three freeze-thaw (−80 °C/RT)): −7.1% | Stability RE ([1]; 240 ng/mL, 10 °C (4 h)): 3.6% | Stability RE ([1]; 240 ng/mL, 21 days at −80 °C): 6.9% | Stability RE ([1]; 240 ng/mL, room temperature (3 h)): −1.6% | Stability RE ([1]; 240 ng/mL, three freeze-thaw (−80 °C/RT)): −7.4% | predicted increase of AUC when co-administered with fluconazole [8]: 58% | predicted increase of AUC when co-administered with itraconazole [8]: 79% | predicted increase of AUC when co-administered with voriconazole [8]: 84% | Km at 30 min (in vitro [9]): 15 µM | likelihood of crizotinib-induced hepatotoxicity, patients with pre-existing liver conditions vs without liver disease ([10]; ref Jung et al., 2018): 2.3 times | patients with elevated alanine aminotransferase (ALT) levels ([10]; standard dose of crizotinib, ref Kazandjian et al., 2014): 17% | patients with Grade 1 or 2 liver abnormalities ([10]; typically within two months of treatment, reversible, ref Revol et al., 2020): 30% | Km at 30 min (in vitro [11]): 1 µM | AUC(0-inf) [2, 16]: 5670 ng·h/mL | AUC(0-t) [2, 16]: 5560 ng·h/mL | Cmax [2, 16]: 326 ± 41 ng/mL | Tmax [2, 16]: 8.8 ± 1.79 h | half-life [2, 16]: 8.23 ± 1.65 h | CL/F [2, 16]: 76 mL/min/kg | AUC(0-inf) [2, 17]: 4140 ng·h/mL | AUC(0-t) [2, 17]: 4100 ng·h/mL | Cmax [2, 17]: 237 ± 45.3 ng/mL | Tmax [2, 17]: 8.8 ± 1.79 h | half-life [2, 17]: 6.83 ± 0.77 h | CL/F [2, 17]: 102 mL/min/kg | increase of AUC(0−t) on co-administration of tropifexor [2, 18]: 35.7% | increase of AUC(0−∞) on co-administration of tropifexor [2, 18]: 36.9%

O=C(O)c1cc(F)c2nc(N3[C@@H]4CC[C@H]3C[C@@H](OCc3c(-c5ccccc5OC(F)(F)F)noc3C3CC3)C4)sc2c1 [tropifexor, Tropifexor]
decrease in Cmax on co-administration with a CYP3A4 inhibitor [12]: 9% | decrease in Cmax on co-administration with the CYP3A4 inducer rifampin [12]: 55% | inhibition mechanism on crizotinib metabolism [13]: competitive and non-competitive | α [13]: 2.71 | IC50 at 0.5 h ([13]; human, liver microsomes, pH 7.4, IC50 of tropifexor on crizotinib metabolism, crizotinib at Km): 4.3 µM | Ki at 0.5 h ([13]; human, liver microsomes, pH 7.4, n = 3): 4.93 µM | αKi ([13]; n = 3): 13.38 µM | safety and tolerability [14]: safe and well-tolerated | inhibition mechanism on crizotinib metabolism [15]: non-competitive and uncompetitive | α [15]: 0.66 | Ki ([15]; n = 3): 5.6 µM | αKi ([15]; n = 3): 3.72 µM | IC50 ([15]; read-out: IC50 of tropifexor on crizotinib metabolism, crizotinib at Km): 4.43 µM

From publication PMC12553364 (PeerJ, 2025)
